The record followed here is patent US10034827B2, “Skin care product and method of use” (The Procter & Gamble Company, priority 2014, dated 2018).

A short description of series [1]: In vivo skin penetration study #2, Tape Stripping method (magnetic vs non-magnetic applicator). Further details: species or system human. The protocol:
(§1) This method provides a suitable means of measuring the amount of skin care active present in skin, and comparing active versus passive application of the skin care active. Two identical rectangular areas of 15 cm^2 are marked on the volar forearms of volunteers. A measured dose (approximately 30 mg) of the Pal-KTTKS (SEQ ID NO: 1) formulation is applied to the delineated areas using a screw actuated syringe. Active application is carried out on one of the delineated areas using the three-quarter profile of a purpose made applicator (e.g., an applicator presenting one of the magnetic arrays set forth in Table 2). Passive application is accomplished on the other delineated area using the tip of a finger in a sweeping motion identical to that of the active application. The formulation is spread evenly across the entire delineated region using a sweeping motion with a fixed speed of approximately 23 cm/s to […]. The application period is 30 seconds during which time visual inspection is used to ensure even distribution and absorption of the formulation by skin. The application area is then left uncovered for a further 30 minutes to ensure complete absorption. Tape strip samples may be collected and/or analyzed immediately after the complete absorption is ensured or after a waiting period (e.g., after multiple applications of the formulation over multiple hours or days).
(§2) The tape stripping procedure is carried out using 10 commercial pre-cut 22.1 mm tape stripping adhesive discs (e.g., D-SQUAME brand tape strips, available from Cuderm Corporation, or equivalent) with an adhesive area of 3.8 cm^2. The 10 tape strips are applied sequentially to the same sampling site, which ideally enables each tape strip to obtain a sample from deeper within the stratum corneum than the tape strip that preceded it. A 22.1 mm diameter circular region is marked at the center of the application area. A tape stripping adhesive disc is placed over the marked area and even pressure applied using, for example, a neoprene roller, rolled ten times over the adhesive disc. The adhesive disc is removed from the skin surface in a single pulling motion using manual tweezers. To ensure even removal of the skin sample, subsequent discs are removed in a “north, south, east and west” orientation, which is within the skill of the ordinary artisan. Each adhesive disc is non-destructively analyzed for protein content using a suitable instrument (e.g., SquameScan™ 850 instrument commercially available from Heiland Electronics Wetzlar, Germany, or equivalent). The adhesive disc is then immediately placed into a glass vial containing extraction solvent in preparation for subsequent analysis. Solvent extractions are conducted on each tape strip using conventional extraction methods, which are well known to those of ordinary skill in the art, and measuring the amount of Pal-KTTKS (SEQ ID NO: 1) present in the extract, for example, by high performance liquid chromatography (“HPLC”) and/or mass spectrometry.
The procedure is repeated for the remaining nine strips. An additional strip is obtained from outside the area of application of the skin care formulation to serve as a blank sample. The amount of active is normalized to the amount of protein measured. […]

Series [2] in a line: Diamagnetic susceptibility. The class given is physicochemical. Conditions: dimensionless.
Series [3] can be described thus: Ex vivo skin penetration study (Franz cell, magnetic arrays moved above epidermis). The class given is in vitro ADME, human. Conditions: arrays 1 (uni-directional, 27 mT) and 2 (bi-directional, overall 21 mT) of Table 1; 400 μg/ml in 50:50 PG:PB pH 4. On the procedure:
An ex vivo skin penetration study was conducted to compare the ability of different magnetic arrays to enhance penetration of Pal-KTTKS (SEQ ID NO: 1) into the epidermis of human skin. The dermis and epidermis of human skin samples obtained from donors aged 60-65 years were heat separated and the dermis discarded. 20 μL of a Pal-KTTKS (SEQ ID NO: 1) containing composition (400 μg/ml in 50:50 PG:PB at pH 4) was placed on human epidermis in Franz cell. Different magnetic arrays were positioned approximately 1.0 mm above the epidermis samples and moved over the samples at the speed a user might move a cosmetic applicator when applying a skin care product (e.g., about 20-25 cm/sec). Samples were taken and measured at 0, 1, 2, 4, 6, 8, 24 hours. […] For the bi-directional arrays herein, the “1st layer” refers to the layer closest to the skin-contacting surface of the applicator, and the “2nd layer” refers to the layer disposed on the side of the 1st layer opposite the side closest to the skin-contacting surface.

Series [4] in a line: In vivo skin penetration study #1, Tape Stripping method (active magnetic array vs passive finger application). On the set-up: species or system human. The protocol:
An in vivo skin penetration study was conducted to establish the effect of using a skin care product of the present invention by applying a skin care composition comprising Pal-KTTKS (SEQ ID NO: 1) with an applicator comprising a magnetic array. The study compared the penetration of the Pal-KTTKS (SEQ ID NO: 1) in combination with a variety of magnetic arrays (active application) to the penetration of Pal-KTTKS (SEQ ID NO: 1) applied with a finger (passive application). Penetration of Pal-KTTKS (SEQ ID NO: 1) in this example is determined according to the Tape Stripping method. In this example, the level of Pal-KTTKS (SEQ ID NO: 1) present in the extract from each tape strip was measured using HPLC and the results normalized to the protein level measured on the tape strip.
as §1, §2
The procedure is repeated for the remaining nine strips. An additional strip is obtained from outside the area of application of the skin care formulation to serve as a blank sample. […]

[5] abbreviates: magnetic applicator with array #8, average across all 10 test sites, in ng (unit assumed).
[6] abbreviates: non-magnetic applicator, average across all 10 test sites, in ng (unit assumed).

The structures appear in SMILES notation. Residues, ends and D or L forms follow the SMILES beside them. *: point of attachment. Palmitoyl = CCCCCCCCCCCCCCCC(=O)*

For `CCCCCCCCCCCCCCCC(=O)N[C@@H](CCCCN)C(=O)N[C@H](C(=O)N[C@H](C(=O)N[C@@H](CCCCN)C(=O)N[C@@H](CO)C(=O)O)[C@@H](C)O)[C@@H](C)O` [Pal-KTTKS, palmitoyl-lysine-threonine-threonine-lysine-serine] (Palmitoyl-KTTKS-OH; C-terminus assumed), in series [1] (array #8 vs non-magnetic applicator, average of the enhancement values of all test sites), the “Enhancement value Strips 2-10 (active/passive), Avg” value turned out to be 4. Moreover, the “Sum 2-10 of Pal-KTTKS recovered, active application, Avg” value in series [1] (setting [5]) is on record as 42.02. Moreover, the “Sum 6-10 of Pal-KTTKS recovered, active application, Avg” value in series [1] (setting [5]) was determined as 22.74. Moreover, in series [1] (setting [6]), the “Sum 2-10 of Pal-KTTKS recovered, passive application, Avg” value came out at 20.55. Further, the “Sum 6-10 of Pal-KTTKS recovered, passive application, Avg” value in series [1] (setting [6]) came to 10.01. Also, in series [2], the diamagnetic susceptibility entry was “approximately −519”. In addition, the “penetration enhancement of Pal-KTTKS into human epidermis” value in series [3] is reported as “demonstrated the best penetration enhancement”. The “Enhancement (active/passive)” value in series [4] (array #4, tape strips 2-4, from average values of Table 11) was found to be 1.54; in series [4] (array #4, tape strips 5-7, from average values of Table 11) it was 2.18; in series [4] (array #4, tape strips 8-10, from average values of Table 11), 2.98; in series [4] (array #9, tape strips 2-4, from average values of Table 9), 4.19; in series [4] (array #9, tape strips 5-7, from average values of Table 9), 2.38; in series [4] (array #9, tape strips 8-10, from average values of Table 9) it was 3.78. Also, the “penetration enhancement compared with other magnetic arrays” value in series [4] (magnetic array #4 (uni-directional)) and in series [4] (magnetic array #9 (bi-directional)) was “better penetration enhancement than some of the other magnetic arrays tested” in each case.
